Results as given in the supplement of paper PMC10307832.

How the values were obtained:
Test in all cases: relative viability (nuclei count vs DMSO), 5 days (fraction); higher = more cells survive
[1] = compound: C1COCCN1CC2=CC(=O)C(=CO2)OCCCCCSC3=C4C=CC(=CC4=NC=C3)C(F)(F)F [EHT 1864] + Nc1nc2[nH]cc(CCc3ccc(C(=O)N[C@@H](CCC(=O)O)C(=O)O)cc3)c2c(=O)[nH]1 [Pemetrexed] (partner 0.2 µM)
In short: (§1)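 Five library-drug doses in √10 steps were combined with a fixed anchor-drug dose, or a single drug was given alone, by pin tool to lung cancer cell lines in 1536-well plates the day after seeding. Nuclei were stained and counted after 5 days. Relative viability is the nuclei count in treated wells over that in vehicle wells, taken as the median of duplicate plates.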

[2] = compound: C1COCCN1CC2=CC(=O)C(=CO2)OCCCCCSC3=C4C=CC(=CC4=NC=C3)C(F)(F)F [EHT 1864] + CS(=O)(=O)CCNCc1ccc(-c2ccc3ncnc(Nc4ccc(OCc5cccc(F)c5)c(Cl)c4)c3c2)o1 [Lapatinib] (partner 2 µM)
In short: as §1

[3] = compound: C1COCCN1CC2=CC(=O)C(=CO2)OCCCCCSC3=C4C=CC(=CC4=NC=C3)C(F)(F)F [EHT 1864] + C[C@@H](Oc1cc(-c2cnn(C3CCNCC3)c2)cnc1N)c1c(Cl)ccc(F)c1Cl [Crizotinib] (partner 1 µM)
In short: as §1

[4] = compound: C1COCCN1CC2=CC(=O)C(=CO2)OCCCCCSC3=C4C=CC(=CC4=NC=C3)C(F)(F)F [EHT 1864] + Cc1nc(Nc2ncc(C(=O)Nc3c(C)cccc3Cl)s2)cc(N2CCN(CCO)CC2)n1 [Dasatinib] (partner 0.075 µM)
In short: as §1

Cell Line	relative viability ([1]; first compound 0.04 µM)	relative viability ([1]; first compound 0.1265 µM)	relative viability ([1]; first compound 0.4 µM)	relative viability ([1]; first compound 1.265 µM)	relative viability ([1]; first compound 4 µM)	relative viability ([2]; first compound 0.04 µM)	relative viability ([2]; first compound 0.1265 µM)	relative viability ([2]; first compound 0.4 µM)	relative viability ([2]; first compound 1.265 µM)	relative viability ([2]; first compound 4 µM)	relative viability ([3]; first compound 0.04 µM)	relative viability ([3]; first compound 0.1265 µM)	relative viability ([3]; first compound 0.4 µM)	relative viability ([3]; first compound 1.265 µM)	relative viability ([3]; first compound 4 µM)	relative viability ([4]; first compound 0.04 µM)	relative viability ([4]; first compound 0.1265 µM)	relative viability ([4]; first compound 0.4 µM)	relative viability ([4]; first compound 1.265 µM)	relative viability ([4]; first compound 4 µM)
NCI-H661	0.904	0.884	0.871	0.844	0.682	0.429	0.488	0.511	0.429	0.503	1.03	1.03	0.882	0.85	0.879	0.883	0.828	0.919	0.8	0.725
NCI-H2342	0.603	0.704	0.788	0.709	0.742	–	–	–	–	–	–	–	–	–	–	0.317	0.307	0.315	0.309	0.306
HCC-366	0.159	0.145	0.136	0.15	0.152	1.02	–	0.929	1.04	0.992	0.434	–	0.423	0.554	0.487	0.609	0.602	0.638	0.596	0.771
HOP-62	0.438	–	0.269	0.388	0.314	1.07	–	1.01	1.09	1.18	0.944	–	0.952	0.784	0.996	0.561	–	0.74	0.589	0.84
NCI-H2170	0.279	0.251	0.262	0.279	0.266	0.272	0.268	0.283	0.239	0.271	1.15	1.17	1.2	1.18	1.21	0.608	0.579	0.688	0.474	0.563
SW 1573	0.737	–	0.78	0.869	0.775	1.22	0.912	1.12	1.03	1.06	0.827	0.74	0.803	0.813	0.856	0.516	0.362	0.445	0.538	0.516
LU99A	0.196	0.178	0.179	0.186	0.19	1.02	0.64	0.873	1.17	0.949	0.604	0.489	0.575	0.593	0.537	0.482	0.413	0.613	0.564	0.436
NCI-H647	0.203	0.13	0.164	0.157	0.177	0.856	0.842	0.923	0.957	1.14	1	0.922	0.903	0.992	0.911	0.193	0.121	0.168	0.179	0.204
A-427	0.979	1.01	0.952	0.931	0.935	1.09	1.06	1	1.09	1.07	0.949	0.945	0.817	0.8	0.811	0.643	0.655	0.613	0.705	0.623
NCI-H441	0.28	–	0.286	0.241	0.255	–	–	–	–	–	0.783	0.591	0.752	0.879	0.723	0.562	0.532	0.557	0.649	0.603
EBC-1	–	–	–	–	–	0.222	0.225	0.194	0.19	0.238	0.18	0.181	0.219	0.205	0.196	–	–	–	–	–
HCC-44	0.603	0.594	0.618	0.674	0.674	1.04	0.822	0.955	1.05	0.965	0.799	0.751	0.693	0.653	0.858	–	–	–	–	–
NCI-H1648	0.827	–	0.673	0.655	0.726	–	–	–	–	–	–	–	–	–	–	–	–	–	–	–
SW 900	0.477	–	0.463	0.473	0.446	–	–	–	–	–	–	–	–	–	–	0.809	–	0.684	1.02	0.552
ABC-1	–	–	–	–	–	1.06	1.15	0.949	0.729	1.15	1.35	1.03	0.991	0.733	0.759	0.504	–	0.631	0.488	0.439
NCI-H1395	0.923	0.73	0.89	0.805	0.915	1.04	0.877	1.05	1.01	0.861	–	–	–	–	–	0.48	0.386	0.426	0.418	0.407
NCI-H1299	–	–	–	–	–	0.969	0.904	0.949	0.931	0.909	0.928	0.975	0.95	0.925	0.901	–	–	–	–	–
ChaGo-K-1	0.261	0.27	0.25	0.264	0.256	–	–	–	–	–	1.14	1.15	1.12	–	1.01	0.587	0.551	0.619	0.602	0.616
NCI-H522	1.29	0.75	0.977	1.16	1.18	–	–	–	–	–	–	–	–	–	–	0.919	0.724	1.04	0.812	0.875
A549	–	–	–	–	–	0.927	0.894	0.996	0.914	0.625	0.659	0.739	0.742	0.669	0.601	–	–	–	–	–
IA-LM	–	–	–	–	–	0.704	–	0.74	–	0.622	1.01	–	0.754	–	0.684	–	–	–	–	–
LCLC-103H	0.431	0.45	0.506	0.468	0.5	–	–	–	–	–	1.15	1.03	1.02	1.05	1.01	0.409	0.399	0.373	0.431	0.505
Calu-6	–	–	–	–	–	1.03	0.933	1.03	1.04	0.857	0.763	0.767	0.676	0.748	0.733	–	–	–	–	–
